On the set-up of data set [1]: method as in Koo et al. (2006) [16]. The note with it: ref Koo et al. (2006) [16]; read-out: DPPH radical scavenging EC50; cited from earlier work.
On the set-up of data set [2]: method as in Chen et al. (2012) [15]. The note with it: DPPH in methanol; ref Chen et al. (2012) [15]; cited from earlier work.
The nature of data set [3]: DPPH radical scavenging assay. The format is biochemical. The note with it: DPPH in ethanol, 30 min. How it is done: Ascorbic acid was serially diluted to a concentration range of 0.78–100 µg/mL. Ethanol (10%) was used as a blank. Ninety microliters of a […] DPPH (2,2-diphenyl-1-picrylhydrazyl) in ethanol were added to each well. The plates were incubated for 30 min and covered in a layer of foil. Color controls (negative controls) were prepared in the exact same manner as above, but distilled water was added to each well instead of DPPH. The absorbances were measured at a wavelength of 515 nm using a BIO-TEK Power-Wave XS multiplate reader (BIO-TEK Instruments, Winooski, VT, USA). From the absorbances an IC50 value was determined.

Another data set concerns PBMCs. Further details: method as in Sipahi et al. (2016) [21]. The note with it: aqueous extract of verbascoside; ref Sipahi et al. (2016) [21]; read-out: PBMC cellular toxicity IC50; cited from earlier work.
The target of data set [4] is T1, CYP 1A1 (placental microsomes) (Homo sapiens, UniProt P04798).
T1 construct: from tissue; host or cells: human placental microsomes
T1 sequence (P04798 1-512): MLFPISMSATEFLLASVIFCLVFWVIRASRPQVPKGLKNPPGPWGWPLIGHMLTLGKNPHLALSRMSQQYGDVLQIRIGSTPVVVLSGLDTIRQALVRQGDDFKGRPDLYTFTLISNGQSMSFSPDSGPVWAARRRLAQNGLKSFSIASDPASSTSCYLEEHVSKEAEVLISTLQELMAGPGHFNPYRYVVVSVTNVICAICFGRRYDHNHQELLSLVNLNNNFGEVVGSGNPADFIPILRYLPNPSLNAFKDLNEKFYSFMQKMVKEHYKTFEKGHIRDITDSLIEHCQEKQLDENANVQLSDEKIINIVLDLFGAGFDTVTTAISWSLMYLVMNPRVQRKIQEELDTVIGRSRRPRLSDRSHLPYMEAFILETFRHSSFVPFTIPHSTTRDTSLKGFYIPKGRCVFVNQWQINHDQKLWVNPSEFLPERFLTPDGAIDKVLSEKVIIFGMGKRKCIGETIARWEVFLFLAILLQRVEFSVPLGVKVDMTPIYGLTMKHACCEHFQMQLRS
Kind of data set: Inhibition of placental microsome-catalyzed CYP oxidation. It is filed as in vitro ADME. The note with it: CYP 1A1, substrate TFD024, placental microsomes. How it is done: (§1) Incubations were carried out in a total volume of 100 µl of 100 mM Tris-HCl buffer (pH 7.4) in all black, flat-bottom Costar 96-well plates (Corning Incorporated, Corning, NY, USA). […] The samples were then preincubated at 37 °C for 10 min. The reactions were initiated by the addition of NADPH, and 0–10 µM 7-hydroxycoumarin was used as the standard. The fluorescent signal was measured with a Victor^2 1420 multilabel plate counter (PerkinElmer Lifesciences Wallac, Turku, Finland) with excitation and emission wavelengths of 405 and 460 nm, respectively. Fluorescence was monitored every 2 min for 40 min from where the concentration was calculated at the various time points. From these, oxidation rates (µM/min) and the relative remaining activity of the sample at different concentrations were calculated. The data were fit to sigmoidal dose-response curves with nonlinear regression, and IC50 values (the concentration at which the sample reduced the metabolism of the CYP substrate by 50%) were determined. […] This was analyzed using nonlinear equations in Graph Pad Prism, which produced IC50 values and its 95% confidence interval as the results.

The subject of another data set is HepG2 cell line. Further details: method as in Etemad et al. (2015) [19]. The note with it: after 24 and 72 h, highest concentration tested; ref Etemad et al. (2015) [19]; read-out: HepG2 cellular toxicity IC50; cited from earlier work.
The subject of data set [5] is recombinant human UGT1A7, 1A10, and UGT1A8. Kind of data set: Glucuronidation by recombinant human UGTs. The format is in vitro ADME. The note with it: incubation with recombinant human UGT1A7, 1A10 and UGT1A8.
Data set [6] concerns CYP 1B1 (liver microsomes). Kind of data set: Inhibition of hepatic microsome-catalyzed CYP oxidation. The note with it: CYP 1B1, substrate TFD008_1, liver microsomes. The format is in vitro ADME, human. How it is done: as §1
A further data set addresses T2, CYP 19A1 (aromatase) (Homo sapiens, UniProt P11511).
T2 construct: from tissue; host or cells: human placental microsomes
T2 sequence (P11511 1-503): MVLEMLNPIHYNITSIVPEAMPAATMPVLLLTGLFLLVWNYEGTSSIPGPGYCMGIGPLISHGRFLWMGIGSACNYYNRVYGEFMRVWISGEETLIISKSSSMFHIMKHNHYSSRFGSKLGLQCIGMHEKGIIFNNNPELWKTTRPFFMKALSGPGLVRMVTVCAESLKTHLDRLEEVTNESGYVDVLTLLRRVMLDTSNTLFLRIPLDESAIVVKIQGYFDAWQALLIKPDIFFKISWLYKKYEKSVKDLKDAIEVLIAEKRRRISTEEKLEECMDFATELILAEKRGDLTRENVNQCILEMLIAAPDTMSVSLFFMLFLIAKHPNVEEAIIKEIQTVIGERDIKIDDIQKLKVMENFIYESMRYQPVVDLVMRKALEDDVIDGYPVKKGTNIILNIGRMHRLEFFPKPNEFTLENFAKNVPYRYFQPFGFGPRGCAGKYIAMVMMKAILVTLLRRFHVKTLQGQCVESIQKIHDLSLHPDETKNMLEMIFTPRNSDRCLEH
Kind of data set: Aromatase inhibition assay, tritiated water release, placental microsomes. The note with it: CYP 19A1, substrate androstendione, verbascoside 4-500 µM. The format is in vitro ADME. On the procedure:
The relative remaining aromatase activity was calculated by measuring the tritiated water (^3H2O) formed from the aromatization of ^3H-Androst-4-ene,3,17-dione. […] Twenty percent NADPH regenerative system was added to initiate the reaction. Reactions were terminated by the addition of 33% trichloroacetic acid. The supernatant was investigated for tritiated water formed in a scintillation mixture (Optiphase Hisafe 2, Perkin Elmer) using a Wallac microbeta 1450 TriLux liquid scintillation and luminescence counter (PerkinElmer).

Structures are written as SMILES. Like-named read-outs stand apart in the source and are kept apart here. Bounds are passed on as bounds.

As for `C[C@@H]1O[C@@H](O[C@@H]2[C@@H](O)[C@H](OCCc3ccc(O)c(O)c3)O[C@H](CO)[C@H]2OC(=O)/C=C/c2ccc(O)c(O)c2)[C@H](O)[C@H](O)[C@H]1O` [Verbascoside], the EC50 in [1] was 1.28 µM. Besides, the IC50 in [2] is 11.4 µM; in data set [3], 2.5 ± 0.02 µM; in the data set with PBMCs, 384 µM; in [4] (read-out: Microsomal IC50 (µM) with 95% Confidence Intervals), 350 µM; in the data set with HepG2 cell line, > 400 µM. The “Microsomal IC50 (µM) with 95% Confidence Intervals” value is on record as “did not inhibit” in [4], “No inhibition ^b” in [6], “No inhibition” at CYP 19A1 (aromatase) and “did not inhibit” at CYP 19A1 (aromatase) (listed as verbascoside). Further, in [5], the Metabolites formed entry is “low levels of glucuronide metabolites”.

The record behind these values is publication PMC6600574 (Molecules, 2019).
